Assay results as given in PubChem BioAssay (NCI).
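Grown in 96-well plates, cells were treated for 48 hours with each compound at five concentrations. Insufficient inhibition: endpoint recorded as highest concentration tested. Here, GI50 denotes the concentration required for 50% inhibition of growth. TGI: total growth inhibition.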

The molecules below were run on DU-145 prostate (assay: NCI-60 cell line screen, 48 h).

| Compound | GI50 [µM] | TGI [µM] |
| --- | --- | --- |
| Cc1nc2sc(C(=O)Nc3cccc(Cl)c3C)c(N)c2cc1C(=O)/C=C/c1ccccc1 | 0.769 | 2.84 |
| CC(C)c1ccc(C(=O)Nc2nc3ccc(O)cc3s2)cc1 | 1.7 | > 100 |
| C=C1C(=O)O[C@H]2[C@H]1CC/C(CNC(=O)c1cc3cc(OC)ccc3[nH]1)=C\CC[C@@]1(C)O[C@@H]21 | 1.21 | 2.78 |
| O=S(=O)(NC1=NCCN1C(=S)SN1CCn2c1nsc2=S)c1ccc(Br)cc1 | 28.9 | > 100 |
| O=C1c2ccccc2-c2c1c1ccccc1c(=O)n2CCCNCCCn1ccnc1 | 0.318 | 2.07 |
| ClCc1cccc(Cn2cnc3c(NC45CC6CC(CC(C6)C4)C5)ncnc32)c1 | 17.3 | 46.6 |
| CC(=O)CC(=O)Nc1ccc2ccccc2c1 | – | > 100 |
| COC(=O)c1cc2c(cc1Cl)SC(N(N(C)C)S(=O)(=O)c1ccc(Br)s1)=NS2(=O)=O | 26.1 | 86 |
| O=c1c2cc(Cl)ccc2oc2ccc(OCCCCCN3CCCCC3)cc12 | 6.4 | 12.7 |
| O=C1c2ccccc2C(=O)N1CCCSc1ccccc1 | – | > 100 |
| CCOC(=O)Nc1nc2ccc(Cn3cccc3)cc2[nH]1 | – | > 52.5 |
| COc1cc(Nc2nccc(Nc3ccc4c(C)[nH]nc4c3)n2)cc(OC)c1OC | 2.44 | 7.43 |
| COc1ccc(/C=N\NC(=O)CN2CCN(c3cc4c(cc3F)c(=O)c(C(=O)N/N=C/c3ccc(OC)c(OC)c3)cn4C3CC3)CC2)cc1OC | 3.54 | 12 |

What follows are molecules tested on CCRF-CEM leukemia (assay: NCI-60 cell line screen, 48 h).

| Compound | GI50 [µM] | TGI [µM] |
| --- | --- | --- |
| Cc1nc2sc(C(=O)Nc3cccc(Cl)c3C)c(N)c2cc1C(=O)/C=C/c1ccccc1 | 0.176 | > 50 |
| CC(C)c1ccc(C(=O)Nc2nc3ccc(O)cc3s2)cc1 | 0.318 | > 100 |
| C=C1C(=O)O[C@H]2[C@H]1CC/C(CNC(=O)c1cc3cc(OC)ccc3[nH]1)=C\CC[C@@]1(C)O[C@@H]21 | 1.97 | 5.93 |
| O=S(=O)(NC1=NCCN1C(=S)SN1CCn2c1nsc2=S)c1ccc(Br)cc1 | 20.9 | 71.8 |
| O=C1c2ccccc2-c2c1c1ccccc1c(=O)n2CCCNCCCn1ccnc1 | 0.246 | 1.71 |
| ClCc1cccc(Cn2cnc3c(NC45CC6CC(CC(C6)C4)C5)ncnc32)c1 | 16 | > 69.1 |
| CC(=O)CC(=O)Nc1ccc2ccccc2c1 | – | > 100 |
| COC(=O)c1cc2c(cc1Cl)SC(N(N(C)C)S(=O)(=O)c1ccc(Br)s1)=NS2(=O)=O | 23.1 | 72.5 |
| O=c1c2cc(Cl)ccc2oc2ccc(OCCCCCN3CCCCC3)cc12 | 3.92 | 11.3 |
| O=C1c2ccccc2C(=O)N1CCCSc1ccccc1 | – | > 100 |
| CCOC(=O)Nc1nc2ccc(Cn3cccc3)cc2[nH]1 | – | 25.1 |
| COc1cc(Nc2nccc(Nc3ccc4c(C)[nH]nc4c3)n2)cc(OC)c1OC | 6 | > 25 |
| COc1ccc(/C=N\NC(=O)CN2CCN(c3cc4c(cc3F)c(=O)c(C(=O)N/N=C/c3ccc(OC)c(OC)c3)cn4C3CC3)CC2)cc1OC | 3.31 | > 100 |

The molecules below were run on HS 578T breast (assay: NCI-60 cell line screen, 48 h).

| Compound | GI50 [µM] | TGI [µM] |
| --- | --- | --- |
| Cc1nc2sc(C(=O)Nc3cccc(Cl)c3C)c(N)c2cc1C(=O)/C=C/c1ccccc1 | 0.38 | > 13.5 |
| CC(C)c1ccc(C(=O)Nc2nc3ccc(O)cc3s2)cc1 | 11.4 | > 100 |
| C=C1C(=O)O[C@H]2[C@H]1CC/C(CNC(=O)c1cc3cc(OC)ccc3[nH]1)=C\CC[C@@]1(C)O[C@@H]21 | 2.88 | 11.8 |
| O=S(=O)(NC1=NCCN1C(=S)SN1CCn2c1nsc2=S)c1ccc(Br)cc1 | 21.4 | 67.2 |
| O=C1c2ccccc2-c2c1c1ccccc1c(=O)n2CCCNCCCn1ccnc1 | 0.545 | 5 |
| ClCc1cccc(Cn2cnc3c(NC45CC6CC(CC(C6)C4)C5)ncnc32)c1 | 23.4 | 68.2 |
| CC(=O)CC(=O)Nc1ccc2ccccc2c1 | – | > 100 |
| COC(=O)c1cc2c(cc1Cl)SC(N(N(C)C)S(=O)(=O)c1ccc(Br)s1)=NS2(=O)=O | 26.2 | 63.5 |
| O=c1c2cc(Cl)ccc2oc2ccc(OCCCCCN3CCCCC3)cc12 | 6.16 | 15.1 |
| O=C1c2ccccc2C(=O)N1CCCSc1ccccc1 | – | > 100 |
| CCOC(=O)Nc1nc2ccc(Cn3cccc3)cc2[nH]1 | – | > 100 |
| COc1cc(Nc2nccc(Nc3ccc4c(C)[nH]nc4c3)n2)cc(OC)c1OC | 0.604 | 5.15 |
| COc1ccc(/C=N\NC(=O)CN2CCN(c3cc4c(cc3F)c(=O)c(C(=O)N/N=C/c3ccc(OC)c(OC)c3)cn4C3CC3)CC2)cc1OC | 2.51 | 8.99 |

These molecules were tested on OVCAR-4 ovarian (assay: NCI-60 cell line screen, 48 h).

| Compound | GI50 [µM] | TGI [µM] |
| --- | --- | --- |
| Cc1nc2sc(C(=O)Nc3cccc(Cl)c3C)c(N)c2cc1C(=O)/C=C/c1ccccc1 | 1.23 | 7.03 |
| CC(C)c1ccc(C(=O)Nc2nc3ccc(O)cc3s2)cc1 | 0.873 | 80.2 |
| C=C1C(=O)O[C@H]2[C@H]1CC/C(CNC(=O)c1cc3cc(OC)ccc3[nH]1)=C\CC[C@@]1(C)O[C@@H]21 | 2 | 7.57 |
| O=S(=O)(NC1=NCCN1C(=S)SN1CCn2c1nsc2=S)c1ccc(Br)cc1 | 49.2 | > 100 |
| O=C1c2ccccc2-c2c1c1ccccc1c(=O)n2CCCNCCCn1ccnc1 | 6.34 | 28.1 |
| ClCc1cccc(Cn2cnc3c(NC45CC6CC(CC(C6)C4)C5)ncnc32)c1 | 15.5 | 38.8 |
| CC(=O)CC(=O)Nc1ccc2ccccc2c1 | – | > 100 |
| COC(=O)c1cc2c(cc1Cl)SC(N(N(C)C)S(=O)(=O)c1ccc(Br)s1)=NS2(=O)=O | 19.2 | 53.7 |
| O=c1c2cc(Cl)ccc2oc2ccc(OCCCCCN3CCCCC3)cc12 | 5.5 | 11.9 |
| O=C1c2ccccc2C(=O)N1CCCSc1ccccc1 | – | > 100 |
| CCOC(=O)Nc1nc2ccc(Cn3cccc3)cc2[nH]1 | – | > 100 |
| COc1cc(Nc2nccc(Nc3ccc4c(C)[nH]nc4c3)n2)cc(OC)c1OC | 4.04 | > 20.7 |
| COc1ccc(/C=N\NC(=O)CN2CCN(c3cc4c(cc3F)c(=O)c(C(=O)N/N=C/c3ccc(OC)c(OC)c3)cn4C3CC3)CC2)cc1OC | 3.17 | 11 |

Each molecule was assayed on K-562 leukemia (assay: NCI-60 cell line screen, 48 h).

| Compound | GI50 [µM] | TGI [µM] |
| --- | --- | --- |
| Cc1nc2sc(C(=O)Nc3cccc(Cl)c3C)c(N)c2cc1C(=O)/C=C/c1ccccc1 | 0.251 | > 50 |
| CC(C)c1ccc(C(=O)Nc2nc3ccc(O)cc3s2)cc1 | 0.298 | 28.6 |
| C=C1C(=O)O[C@H]2[C@H]1CC/C(CNC(=O)c1cc3cc(OC)ccc3[nH]1)=C\CC[C@@]1(C)O[C@@H]21 | 2.56 | 7.99 |
| O=S(=O)(NC1=NCCN1C(=S)SN1CCn2c1nsc2=S)c1ccc(Br)cc1 | 24.6 | 83.2 |
| O=C1c2ccccc2-c2c1c1ccccc1c(=O)n2CCCNCCCn1ccnc1 | 0.529 | 2.65 |
| ClCc1cccc(Cn2cnc3c(NC45CC6CC(CC(C6)C4)C5)ncnc32)c1 | 1.89 | 29.4 |
| CC(=O)CC(=O)Nc1ccc2ccccc2c1 | – | > 100 |
| COC(=O)c1cc2c(cc1Cl)SC(N(N(C)C)S(=O)(=O)c1ccc(Br)s1)=NS2(=O)=O | 16.1 | 33.6 |
| O=c1c2cc(Cl)ccc2oc2ccc(OCCCCCN3CCCCC3)cc12 | 1.76 | 7.55 |
| O=C1c2ccccc2C(=O)N1CCCSc1ccccc1 | – | > 100 |
| CCOC(=O)Nc1nc2ccc(Cn3cccc3)cc2[nH]1 | – | > 100 |
| COc1cc(Nc2nccc(Nc3ccc4c(C)[nH]nc4c3)n2)cc(OC)c1OC | 1.4 | > 25 |
| COc1ccc(/C=N\NC(=O)CN2CCN(c3cc4c(cc3F)c(=O)c(C(=O)N/N=C/c3ccc(OC)c(OC)c3)cn4C3CC3)CC2)cc1OC | 3.81 | > 100 |
